Reference: patent US8067015B2, “Methods and compositions for the treatment and prevention of Staphylococcus and other bacterial infections” (priority 1997, dated 2011)

Legend:
Type in all cases: in vivo
[1] = tested on: S. epidermidis GISE strain; assay: Rat subcutaneous Dacron graft infection model, GISE strain; details: rats; for Bacterial concentration, GISE: 2×10^7 bacteria, explanted day 7, mean ± SD
Experimental: (§1) Rats (Wistar adult males (300-350 g), n=15/experimental group) were anaesthetized, hair on their back shaved and the skin cleansed with 10% povidone-iodine solution. A subcutaneous pocket was made on the side of the median line by a 1.5 cm incision. Aseptically, 1 cm^2 sterile collagen-sealed Dacron graft (Albograft™, Sorin Biomedica Cardio, S.p.A., Saluggi VC, Italy) was implanted into the pocket. […] Pockets were closed by skin clips and 1 ml sterile saline solution with or without 2×10^7 bacteria was inoculated onto the graft surface using a tuberculin syringe to create a subcutaneous fluid-filled pocket. Some of the animals that had grafts soaked only with RIP or saline were injected intraperitoneally with antibiotics (cefazolin 30 mg/kg, imipenem 30 mg/kg, teicoplanin 10 mg/kg, levofloxacin 10 mg/kg). Grafts were explanted 7 days following implantation.
(§2) The explanted grafts were placed in sterile tubes, washed in sterile saline solution, placed in tubes containing 10 ml of phosphate-buffered saline solution and sonicated for 5 min to remove the adherent bacteria from the grafts. Quantitation of viable bacteria was performed by culturing serial 10-fold dilutions (0.1 ml) of the bacterial suspension on blood agar plates. All plates were incubated at 37° C. for 48 hr and evaluated for the presence of the strain. Bacteria were quantitated by counting the number of colony forming unites (CFU) per plate. To determine if bacteria were efficiently removed from the graft, washed and sonicated grafts were observed under a Nikon Eclipse E 600 optical microscope (Nikon Y-THS, Japan).
(§3) Quantitative culture results of the in vivo experiments were presented as mean+SD of the mean. Comparisons of the results were performed by the analysis of variance (ANOVA) on the log-transformed data. Statistical analysis was performed for in vitro adhesion assays using Student's t-Test by Microsoft Excel (Microsoft, Wash.). Significance was accepted when the P value was <0.05.
(§4) To test if RIP can prevent graft-associated infections, Dacron grafts were coated with or without RIP, and with or without various types of antibiotics (for local prophylaxis experiments). Coated grafts were implanted in rats, bacteria injected into the implants, implants removed after a week, and bacterial load determined. Alternatively, Dacron grafts were first coated with RIP, bacteria injected, and antibiotics were administered by the intraperitoneal route (for parenteral prophylaxis experiments). As a negative control, grafts were implanted without local or parenteral RIP/antibiotics prophylaxis and no bacteria were injected. As a positive control, grafts were implanted, bacteria were injected, but no RIP/antibiotics prophylaxis was given.
(§5) Animals (15/group) received a Dacron-graft implanted in a subcutaneous pocket. Graft was subsequently infected with either S. epidermidis (tested on MSSE, MRSE and GISE) or with S. aureus (tested on MSSA, MRSA and GISA). […]

[2] = tested on: S. epidermidis MRSE strain; assay: Rat subcutaneous Dacron graft infection model, MRSE strain; details: rats; for Bacterial concentration, MRSE: 2×10^7 bacteria, explanted day 7, mean ± SD
Experimental: as §1, §2, §3, §4
Animals (15/group) received a Dacron-graft implanted in a subcutaneous pocket. Graft was subsequently infected with either S. epidermidis (tested on MSSE, MRSE and GISE) or with S. aureus (tested on MSSA, MRSA and GISA). The Dacron-graft prior to implantation was soaked in saline with or without 20 mg/l of RIP and some animals received […] of RIP i.p. as a prophylaxis treatment.

[3] = tested on: S. epidermidis MSSE strain; assay: Rat subcutaneous Dacron graft infection model, MSSE strain; details: rats; for Bacterial concentration, MSSE: 2×10^7 bacteria, explanted day 7, mean ± SD
Experimental: as §1, §2, §3, §4, §5

[4] = B. Parenteral prophylaxis: antibiotic intraperitoneally (cefazolin 30, imipenem 30, teicoplanin 10, levofloxacin 10 mg/kg), RIP as 10 mg/l graft soak
[5] = A. Local prophylaxis: graft soaked 20 min in RIP 10 mg/l and/or antibiotic (mupirocin 100, quinupristin-dalfopristin 50, levofloxacin 30, rifampin 5 mg/l)
[6] = peptide-soaked/coated Dacron graft (RIP 10 mg/l), no antibiotic, day 7

Molecule	Bacterial concentration, GISE [1, 4]	Bacterial concentration, MRSE [2, 4]	Bacterial concentration, MSSE [3, 4]	Bacterial concentration, GISE [1, 5]	Bacterial concentration, MRSE [2, 5]	Bacterial concentration, MSSE [3, 5]	Quantitative culture results of explanted graft, GISE strain [1, 6]	Quantitative culture results of explanted graft, MRSE strain [2, 6]	Quantitative culture results of explanted graft, MSSE strain [3, 6]
Cc1nnc(SCC2=C(C(=O)O)N3C(=O)[C@@H](NC(=O)Cn4cnnn4)[C@H]3SC2)s1 [Cefazolin, cefazolin]	590 ± 200 ×10^4 CFU/ml	370 ± 120 ×10^4 CFU/ml	0.64 ± 0.19 ×10^4 CFU/ml	–	–	–	–	–	–
C[C@@H](O)[C@H]1C(=O)N2C(C(=O)O)=C(SCCN=CN)C[C@H]12 [Imipenem, imipenem]	89 ± 36 ×10^4 CFU/ml	4 ± 1.8 ×10^4 CFU/ml	0.73 ± 0.2 ×10^4 CFU/ml	–	–	–	–	–	–
C[C@H]1COc2c(N3CCN(C)CC3)c(F)cc3c(=O)c(C(=O)O)cn1c23 [Levofloxacin, levofloxacin]	480 ± 170 ×10^4 CFU/ml	3.9 ± 1.4 ×10^4 CFU/ml	3.5 ± 1.1 ×10^4 CFU/ml	280 ± 40 ×10^4 CFU/ml	6.8 ± 2.5 ×10^4 CFU/ml	4.2 ± 2.1 ×10^4 CFU/ml	–	–	–
C/C(=C\C(=O)OCCCCCCCCC(=O)O)C[C@@H]1OC[C@H](C[C@@H]2O[C@H]2[C@@H](C)[C@H](C)O)[C@@H](O)[C@H]1O [Mupirocin, mupirocin]	–	–	–	0.07 ± 0.018 ×10^4 CFU/ml	0.035 ± 0.014 ×10^4 CFU/ml	0.064 ± 0.015 ×10^4 CFU/ml	–	–	–
CO[C@H]1/C=C/O[C@@]2(C)Oc3c(C)c(O)c4c(O)c(c(/C=N/N5CCN(C)CC5)c(O)c4c3C2=O)NC(=O)/C(C)=C\C=C\[C@H](C)[C@H](O)[C@@H](C)[C@@H](O)[C@@H](C)[C@H](OC(C)=O)[C@@H]1C [Rifampicin, rifampin]	–	–	–	84 ± 27 ×10^4 CFU/ml	0.8 ± 0.37 ×10^4 CFU/ml	0.73 ± 0.2 ×10^4 CFU/ml	–	–	–
YKPETNF [inactive RIP peptide analogue]	–	–	–	–	–	–	6.52×10^6±3×10^6 CFU/ml	7.08×10^6±2.1×10^6 CFU/ml	5.4×10^6±8×10^5 CFU/ml
quinupristin-dalfopristin	–	–	–	0.0069 ± 0.0013 ×10^4 CFU/ml	0.0048 ± 0.001 ×10^4 CFU/ml	0.0026 ± 0.0003 ×10^4 CFU/ml	–	–	–
teicoplanin	57 ± 24 ×10^4 CFU/ml	0.072 ± 0.008 ×10^4 CFU/ml	0.0084 ± 0.0004 ×10^4 CFU/ml	–	–	–	–	–	–
